The target of this test is T1, soybean lipoxygenase (lipoxygenase type I-B) (Glycine max, UniProt P08170).
T1 construct: gene LOX1.1
T1 sequence (P08170 1-839): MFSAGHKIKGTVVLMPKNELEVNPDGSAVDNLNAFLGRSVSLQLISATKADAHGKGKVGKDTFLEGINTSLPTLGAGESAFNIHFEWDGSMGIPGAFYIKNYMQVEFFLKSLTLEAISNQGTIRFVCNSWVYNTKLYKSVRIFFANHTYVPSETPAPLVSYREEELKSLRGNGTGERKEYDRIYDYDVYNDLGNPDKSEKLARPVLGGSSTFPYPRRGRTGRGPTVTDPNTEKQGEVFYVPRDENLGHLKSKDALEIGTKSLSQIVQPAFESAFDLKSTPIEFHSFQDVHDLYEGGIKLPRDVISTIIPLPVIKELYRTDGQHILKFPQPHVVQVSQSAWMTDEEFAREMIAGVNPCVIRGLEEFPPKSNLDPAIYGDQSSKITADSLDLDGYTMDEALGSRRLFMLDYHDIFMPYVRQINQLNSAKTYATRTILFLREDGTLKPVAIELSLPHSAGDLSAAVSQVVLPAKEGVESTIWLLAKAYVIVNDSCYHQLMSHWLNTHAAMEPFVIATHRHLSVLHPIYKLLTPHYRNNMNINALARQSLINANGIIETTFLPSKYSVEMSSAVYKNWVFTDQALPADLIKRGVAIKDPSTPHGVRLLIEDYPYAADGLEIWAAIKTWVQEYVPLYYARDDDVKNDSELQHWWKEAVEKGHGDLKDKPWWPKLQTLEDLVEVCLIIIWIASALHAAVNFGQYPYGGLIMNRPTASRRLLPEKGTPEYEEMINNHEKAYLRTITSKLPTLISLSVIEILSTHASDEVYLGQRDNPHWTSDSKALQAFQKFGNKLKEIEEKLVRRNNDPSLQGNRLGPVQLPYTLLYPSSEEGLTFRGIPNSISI
The experiment in a line: linoleate oxidation at […] nm, % inhibition at […] μΜ. The test is classed as biochemical. To be noted: read-out: % Inhibition (LOX).

Data on two molecules can be found in paper PMC9609801, “Nipecotic Acid Derivatives as Potent Agents against Neurodegeneration: A Preliminary Study” (Molecules, 2022).

As to `CCOC(=O)C1CCCN(C(=O)c2cc(C(C)(C)C)c(O)c(C(C)(C)C)c2)C1` (centres unmarked) [compound 1, Ethyl 1-(3,5-di-tert-butyl-4-hydroxybenzoyl)piperidine-3-carboxylate], the inhibition at 100 µM came to 31%. In the case of `CCOC(=O)C1CCCN(C(=O)/C=C/c2cc(C(C)(C)C)c(O)c(C(C)(C)C)c2)C1` (centres unmarked) [compound 2, (E)-Ethyl 1-(3-(3,5-di-tert-butyl-4-hydroxyphenyl)acryloyl)piperidine-3-carboxylate], the inhibition at 100 µM was 33%.
